36 molecules from patent publication US9926282B2, “Phthalazinones and isoquinolinones as rock inhibitors” (BRISTOL-MYERS SQUIBB COMPANY, priority 2013, dated 2018) can be followed below.

The structures appear in SMILES notation. Structures can show the parent of a compound that is named as a salt.

One assay deals with ROCK2 (Homo sapiens (Human), UniProt O75116). The assay can be described thus: ROCK assay (LABCHIP peptide phosphorylation), ROCK2. Format: biochemical. Conditions: 5 μM ATP, 1.5 μM peptide substrate.
Sequence of ROCK2 (O75116 whole entry, species assumed): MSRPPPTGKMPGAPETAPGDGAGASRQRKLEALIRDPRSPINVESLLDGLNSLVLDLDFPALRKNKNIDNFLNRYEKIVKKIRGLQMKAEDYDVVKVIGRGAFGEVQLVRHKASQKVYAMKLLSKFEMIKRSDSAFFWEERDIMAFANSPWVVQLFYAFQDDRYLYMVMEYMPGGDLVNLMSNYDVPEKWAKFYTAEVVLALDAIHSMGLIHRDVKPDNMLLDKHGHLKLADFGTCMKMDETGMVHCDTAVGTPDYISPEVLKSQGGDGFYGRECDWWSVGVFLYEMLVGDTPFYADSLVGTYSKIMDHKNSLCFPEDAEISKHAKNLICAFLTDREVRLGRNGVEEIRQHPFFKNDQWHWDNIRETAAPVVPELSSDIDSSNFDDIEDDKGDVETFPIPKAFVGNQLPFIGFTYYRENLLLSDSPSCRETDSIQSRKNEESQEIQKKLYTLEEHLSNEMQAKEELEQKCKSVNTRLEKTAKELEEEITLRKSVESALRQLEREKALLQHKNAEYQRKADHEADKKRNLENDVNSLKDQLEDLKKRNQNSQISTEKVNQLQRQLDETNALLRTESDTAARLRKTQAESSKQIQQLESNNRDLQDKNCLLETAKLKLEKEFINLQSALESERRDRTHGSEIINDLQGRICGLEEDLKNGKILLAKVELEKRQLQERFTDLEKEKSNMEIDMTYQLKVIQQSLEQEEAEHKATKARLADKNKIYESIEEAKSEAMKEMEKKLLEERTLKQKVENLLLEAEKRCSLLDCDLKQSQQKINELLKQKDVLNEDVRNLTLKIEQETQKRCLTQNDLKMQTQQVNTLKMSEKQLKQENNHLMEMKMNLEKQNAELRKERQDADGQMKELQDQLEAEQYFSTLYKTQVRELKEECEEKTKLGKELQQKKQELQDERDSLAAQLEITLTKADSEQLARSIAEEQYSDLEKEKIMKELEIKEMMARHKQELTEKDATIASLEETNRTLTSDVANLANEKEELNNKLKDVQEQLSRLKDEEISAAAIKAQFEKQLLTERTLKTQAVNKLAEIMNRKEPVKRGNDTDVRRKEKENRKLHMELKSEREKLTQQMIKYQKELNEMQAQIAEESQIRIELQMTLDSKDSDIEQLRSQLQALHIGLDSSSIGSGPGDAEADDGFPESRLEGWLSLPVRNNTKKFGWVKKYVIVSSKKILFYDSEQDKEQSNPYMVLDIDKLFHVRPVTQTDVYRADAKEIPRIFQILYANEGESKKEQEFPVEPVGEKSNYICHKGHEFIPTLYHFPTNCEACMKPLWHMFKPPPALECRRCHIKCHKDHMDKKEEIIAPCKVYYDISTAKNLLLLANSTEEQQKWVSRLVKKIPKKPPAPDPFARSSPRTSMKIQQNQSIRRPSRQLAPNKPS
The target of another assay is ROCK1 (Homo sapiens (Human), UniProt Q13464). The assay can be described thus: ROCK assay (LABCHIP peptide phosphorylation), ROCK1. Type of assay: biochemical. To be noted: 5 μM ATP, 1.5 μM peptide substrate; read-out: ROCK1 IC50.
Sequence of ROCK1 (Q13464 whole entry, species assumed): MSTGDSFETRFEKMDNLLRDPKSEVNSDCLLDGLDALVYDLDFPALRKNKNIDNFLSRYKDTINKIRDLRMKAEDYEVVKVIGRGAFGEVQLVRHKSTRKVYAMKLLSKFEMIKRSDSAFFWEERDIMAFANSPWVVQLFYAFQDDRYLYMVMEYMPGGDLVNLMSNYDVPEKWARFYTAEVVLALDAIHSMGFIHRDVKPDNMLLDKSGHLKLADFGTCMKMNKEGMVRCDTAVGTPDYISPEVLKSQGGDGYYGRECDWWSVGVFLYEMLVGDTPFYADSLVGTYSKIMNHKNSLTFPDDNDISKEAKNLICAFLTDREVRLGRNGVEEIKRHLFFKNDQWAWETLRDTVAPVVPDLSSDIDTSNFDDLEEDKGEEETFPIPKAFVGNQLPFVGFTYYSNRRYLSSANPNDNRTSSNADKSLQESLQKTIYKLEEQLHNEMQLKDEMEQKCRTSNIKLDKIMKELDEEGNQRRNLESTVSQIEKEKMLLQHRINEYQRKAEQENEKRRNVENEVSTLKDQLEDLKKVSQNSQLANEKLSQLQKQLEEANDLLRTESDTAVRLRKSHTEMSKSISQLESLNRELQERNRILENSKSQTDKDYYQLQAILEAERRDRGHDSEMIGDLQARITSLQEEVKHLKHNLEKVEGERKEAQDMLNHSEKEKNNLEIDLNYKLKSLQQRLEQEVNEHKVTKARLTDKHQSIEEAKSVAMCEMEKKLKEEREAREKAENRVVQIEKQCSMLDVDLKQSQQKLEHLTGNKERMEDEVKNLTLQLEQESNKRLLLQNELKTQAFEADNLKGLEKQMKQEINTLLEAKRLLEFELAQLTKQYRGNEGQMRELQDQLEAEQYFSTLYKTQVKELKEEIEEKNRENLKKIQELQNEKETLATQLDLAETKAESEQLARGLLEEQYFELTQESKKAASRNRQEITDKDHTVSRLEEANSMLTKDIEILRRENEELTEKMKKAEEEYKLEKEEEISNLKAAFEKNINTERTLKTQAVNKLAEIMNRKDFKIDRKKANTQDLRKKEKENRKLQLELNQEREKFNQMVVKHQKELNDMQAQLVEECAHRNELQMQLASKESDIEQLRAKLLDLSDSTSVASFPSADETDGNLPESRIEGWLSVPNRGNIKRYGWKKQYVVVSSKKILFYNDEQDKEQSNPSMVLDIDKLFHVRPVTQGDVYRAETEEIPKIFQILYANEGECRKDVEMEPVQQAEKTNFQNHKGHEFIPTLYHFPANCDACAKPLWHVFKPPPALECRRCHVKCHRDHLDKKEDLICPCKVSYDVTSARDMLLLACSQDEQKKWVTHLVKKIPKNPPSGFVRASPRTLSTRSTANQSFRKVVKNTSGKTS

Regarding `CN1CC(Cn2nc(C(=O)Nc3ccc(-c4n[nH]c(=O)c5ccccc45)cc3)c3ccccc32)C1` [Example 340, 1-((1-Methylazetidin-3-yl)methyl)-N-(4-(4-oxo-3,4-dihydrophthalazin-1-yl)phenyl)-1H-indazole-3-carboxamide], the 50% inhibitory concentration (IC50) on ROCK2 and on ROCK1 was 0.1 to 100 nM throughout. For the molecule `Cc1cc(NC(=O)Cc2ccc(-c3n[nH]c(=O)c4ccccc34)cc2)no1` [Example 27, N-(5-methyl-1,2-oxazol-3-yl)-2-[4-(4-oxo-3,4-dihydrophthalazin-1-yl)phenyl]acetamide], the IC50 on ROCK2 is 0.1 to 100 nM; on ROCK1 it was 1000 to 50000 nM. Turning to `O=C(Nc1ccc(-c2n[nH]c(=O)c3ccccc23)cc1)N1CCc2ccccc21` [Example 76, N-(4-(4-Oxo-3,4-dihydrophthalazin-1-yl)phenyl)indoline-1-carboxamide], the IC50 against ROCK2 and at ROCK1 was 0.1 to 100 nM throughout. Turning to `COc1ccc2c(-c3ccc(NC(=O)c4nn(CC(C)(C)O)c5ccccc45)cc3)n[nH]c(=O)c2c1` [Example 369, 1-(2-Hydroxy-2-methylpropyl)-N-(4-(6-methoxy-4-oxo-3,4-dihydrophthalazin-1-yl)phenyl)-1H-indazole-3-carboxamide], the IC50 is 0.1 to 100 nM against ROCK2 and 101 to 1000 nM on ROCK1. In the case of `CN(C)c1cccc(C(=O)Nc2ccc(-c3c[nH]c(=O)c4ccccc34)cc2)c1` [Example 244, 3-(Dimethylamino)-N-[4-(1-oxo-1,2-dihydroisoquinolin-4-yl)phenyl]benzamide], the IC50 at ROCK2 and on ROCK1 was 0.1 to 100 nM throughout. Take `Cn1cc(C(=O)Nc2ccc(-c3n[nH]c(=O)c4ccccc34)cc2)cn1` [Example 212, 1-methyl-N-[4-(4-oxo-3,4-dihydrophthalazin-1-yl)phenyl]-1H-pyrazole-4-carboxamide]: the figures for the IC50 on ROCK2 and on ROCK1 were 0.1 to 100 nM and 101 to 1000 nM, respectively. For `Cc1cc(C(=O)Nc2ccc(-c3n[nH]c(=O)c4ccccc34)cc2)nn1C(C)(C)C` [Example 235, 1-tert-butyl-5-methyl-N-[4-(4-oxo-3,4-dihydrophthalazin-1-yl)phenyl]-1H-pyrazole-3-carboxamide], the half-inhibitory concentration (IC50) against ROCK2 and at ROCK1 was 0.1 to 100 nM in each case. Regarding `O=C(Nc1ccc(-c2n[nH]c(=O)c3ccccc23)cc1)c1ncn(-c2ccccn2)n1` [Example 240, N-[4-(4-oxo-3,4-dihydrophthalazin-1-yl)phenyl]-1-(pyridin-2-yl)-1H-1,2,4-triazole-3-carboxamide], the results for the IC50 against ROCK2 and on ROCK1 were 0.1 to 100 nM and 101 to 1000 nM, respectively. In turn, `O=C(Nc1ccc(-c2n[nH]c(=O)c3ccccc23)cc1)c1csc(-c2ccncc2)n1` [Example 45, N-(4-(4-Oxo-3,4-dihydrophthalazin-1-yl)phenyl)-2-(pyridin-4-yl)thiazole-4-carboxamide] had a 50% inhibitory concentration (IC50) on ROCK2 of 0.1 to 100 nM. Regarding `O=C(Cc1ccc(-c2n[nH]c(=O)c3ccccc23)cc1)N1Cc2ccc(F)cc2C1` [Example 2, 4-(4-(2-(5-Fluoroisoindolin-2-yl)-2-oxoethyl)phenyl)phthalazin-1 (2H)-one], the IC50 against ROCK2 is 0.1 to 100 nM; at ROCK1, 101 to 1000 nM. Turning to `COCC(O)Cn1cc(C(=O)Nc2ccc(-c3n[nH]c(=O)c4ccccc34)cc2)cn1` (stereo not shown) [Example 379, 1-(2-Hydroxy-3-methoxypropyl)-N-(4-(4-oxo-3,4-dihydrophthalazin-1-yl)phenyl)-1H-pyrazole-4-carboxamide], the IC50 lay within 0.1 to 100 nM against ROCK2 and 101 to 1000 nM at ROCK1. Regarding `O=C(Cc1ccc(-c2n[nH]c(=O)c3ccccc23)cc1)Nc1ccncc1` [Example 7, 2-[4-(4-oxo-3,4-dihydrophthalazin-1-yl)phenyl]-N-(pyridin-4-yl)acetamide], at ROCK2, the 50% inhibitory concentration (IC50) was 0.1 to 100 nM. `O=C(Nc1ccc(-c2n[nH]c(=O)c3ccccc23)cc1)c1cnn2ccc(OCCO)cc12` [Example 186, 5-(2-hydroxyethoxy)-N-[4-(4-oxo-3,4-dihydrophthalazin-1-yl)phenyl]pyrazolo[1,5-a]pyridine-3-carboxamide]: at ROCK1, the IC50 lay within 101 to 1000 nM.

Take `O=C(Nc1ccc(-c2n[nH]c(=O)c3ccccc23)cc1)c1cnn(CC(F)(F)C(F)F)c1` [Example 383, N-(4-(4-Oxo-3,4-dihydrophthalazin-1-yl)phenyl)-1-(2,2,3,3-tetrafluoropropyl)-1H-pyrazole-4-carboxamide, TFA]: the concentration for half-maximal inhibition (IC50) on ROCK1 lay within 101 to 1000 nM. `O=C(Nc1ccc(-c2n[nH]c(=O)c3ccccc23)cc1)c1cn2ccnc(Cl)c2n1` [Example 124, 8-chloro-N-[4-(4-oxo-3,4-dihydrophthalazin-1-yl)phenyl]imidazo[1,2-a]pyrazine-2-carboxamide]: the IC50 on ROCK1 is 101 to 1000 nM. In the case of `O=C(Nc1ccc(-c2n[nH]c(=O)c3ccccc23)c(CO)c1)c1nn(CCC2CCOCC2)c2ccccc12` [Example 361, N-(3-(Hydroxymethyl)-4-(4-oxo-3,4-dihydrophthalazin-1-yl)phenyl)-1-(2-(tetrahydro-2H-pyran-4-yl)ethyl)-1H-indazole-3-carboxamide], on ROCK1, the IC50 was in the range of 101 to 1000 nM.

As for `O=C(Nc1ccc(-c2n[nH]c(=O)c3ccccc23)cc1)c1cnn(CC2CC2)c1` [Example 375, 1-(Cyclopropylmethyl)-N-(4-(4-oxo-3,4-dihydrophthalazin-1-yl)phenyl)-1H-pyrazole-4-carboxamide, TFA], the half-inhibitory concentration (IC50) at ROCK1 is 0.1 to 100 nM. Regarding `Cc1ccc2oc(Nc3ccc(-c4n[nH]c(=O)c5ccccc45)cc3)nc2c1` [Example 86, 4-{4-[(5-Methyl-1,3-benzoxazol-2-yl)amino]phenyl}-1,2-dihydrophthalazin-1-one], the half-inhibitory concentration (IC50) on ROCK1 was 101 to 1000 nM. `O=C(Nc1ccc(-c2n[nH]c(=O)c3ccccc23)cc1)c1cnn(C2CCS(=O)(=O)C2)c1` (stereo not shown) [Example 396, 1-(1,1-Dioxidotetrahydrothiophen-3-yl)-N-(4-(4-oxo-3,4-dihydrophthalazin-1-yl)phenyl)-1H-pyrazole-4-carboxamide, TFA]: the IC50 at ROCK1 is 101 to 1000 nM. As to `O=C(Cc1ccc(-c2n[nH]c(=O)c3ccccc23)cc1)Nc1cccnc1` [Example 5, 2-[4-(4-oxo-3,4-dihydrophthalazin-1-yl)phenyl]-N-(pyridin-3-yl)acetamide], the 50% inhibitory concentration (IC50) against ROCK2 lay within 101 to 1000 nM. Turning to `O=C(Cc1ccc(-c2c[nH]c(=O)c3ccccc23)c(F)c1)N1Cc2ccccc2C1` [Example 256, 4-(2-Fluoro-4-(2-(isoindolin-2-yl)-2-oxoethyl)phenyl)isoquinolin-1(2H)-one], the concentration for half-maximal inhibition (IC50) on ROCK1 fell in the range of 101 to 1000 nM. Molecule `O=C(Cc1ccc(-c2n[nH]c(=O)c3ccccc23)cc1)N1CCc2ccccc2C1` [Example 4, 4-{4-[2-oxo-2-(1,2,3,4-tetrahydroisoquinolin-2-yl)ethyl]phenyl}-1,2-dihydrophthalazin-1-one] came in with an IC50 against ROCK2 of 101 to 1000 nM. For the molecule `CC(O)Cn1cc(C(=O)Nc2ccc(-c3n[nH]c(=O)c4ccccc34)cc2)cn1` (stereo not shown) [Example 387, 1-(2-Hydroxypropyl)-N-(4-(4-oxo-3,4-dihydrophthalazin-1-yl)phenyl)-1H-pyrazole-4-carboxamide], the concentration for half-maximal inhibition (IC50) on ROCK1 lay in the range of 1000 to 50000 nM. With `O=C(Nc1ccc(-c2n[nH]c(=O)c3ccccc23)cc1)c1cn[nH]c1` [Example 391, N-(4-(4-Oxo-3,4-dihydrophthalazin-1-yl)phenyl)-1H-pyrazole-4-carboxamide, TFA], the IC50 on ROCK1 is 101 to 1000 nM. Regarding `O=c1[nH]nc(-c2ccc(Nc3nc4ccccc4s3)cc2)c2ccccc12` [Example 84], at ROCK1, the 50% inhibitory concentration (IC50) was in the range of 101 to 1000 nM. With `O=C(Cc1ccc(-c2n[nH]c(=O)c3ccccc23)cc1)N1Cc2ccccc2C1` [Example 1, 4-(4-(2-(Isoindolin-2-yl)-2-oxoethyl)phenyl)phthalazin-1(2H)-one], the IC50 at ROCK2 is 0.1 to 100 nM. As for `CC(C)(O)Cn1nc(C(=O)Nc2ccc(-c3n[nH]c(=O)c4ccccc34)cc2F)c2ccccc21` [Example 358, N-(2-Fluoro-4-(4-oxo-3,4-dihydrophthalazin-1-yl)phenyl)-1-(2-hydroxy-2-methylpropyl)-1H-indazole-3-carboxamide], the IC50 at ROCK1 lay in the range of 101 to 1000 nM.

Turning to `CC1(C)OB(c2ccc(CC(=O)N3Cc4ccccc4C3)c(F)c2)OC1(C)C` [Example 36, 2-(2-Fluoro-4-(4,4,5,5-tetramethyl-1,3,2-dioxaborolan-2-yl)phenyl)-1-(isoindolin-2-yl)ethanone], the IC50 at ROCK1 was in the range of 1000 to 50000 nM.

For the molecule `O=C(Nc1ccc(-c2c[nH]c(=O)c3ccccc23)cc1)c1ccc(N2CCOCC2)cc1` [Example 250, 4-Morpholino-N-(4-(1-oxo-1,2-dihydroisoquinolin-4-yl)phenyl)benzamide], the IC50 on ROCK1 was in the range of 101 to 1000 nM. Turning to `O=C(Nc1ccc(-c2n[nH]c(=O)c3ccccc23)cc1)c1cnn(C2CCC2)c1` [Example 385, TFA], the IC50 at ROCK1 is 0.1 to 100 nM. Consider `O=C(Nc1ccc(-c2n[nH]c(=O)c3ccccc23)cc1)c1cnn(CC(F)(F)F)c1` [Example 376, N-(4-(4-Oxo-3,4-dihydrophthalazin-1-yl)phenyl)-1-(2,2,2-trifluoroethyl)-1H-pyrazole-4-carboxamide, TFA], for which, on ROCK1, the IC50 fell in the range of 101 to 1000 nM. On to `O=C(Cc1ccc(-c2n[nH]c(=O)c3ccccc23)cc1)NCc1ccccc1` [Example 6, N-benzyl-2-[4-(4-oxo-3,4-dihydrophthalazin-1-yl)phenyl]acetamide], for which the half-maximal inhibitory concentration (IC50) on ROCK2 was 101 to 1000 nM. For `CN(Cc1ccccc1)C(=O)Cc1ccc(-c2n[nH]c(=O)c3ccccc23)cc1` [Example 8, N-benzyl-N-methyl-2-[4-(4-oxo-3,4-dihydrophthalazin-1-yl)phenyl]acetamide], on ROCK2, the IC50 was in the range of 1000 to 50000 nM. On to `O=c1[nH]nc(-c2ccc(Nc3nnc(-c4ccccc4)s3)cc2)c2ccccc12` [Example 87, 4-(4-((5-Phenyl-1,3,4-thiadiazol-2-yl)amino)phenyl)phthalazin-1(2H)-one], for which the 50% inhibitory concentration (IC50) at ROCK1 lay within 101 to 1000 nM.

With `O=C(Nc1ccc(-c2n[nH]c(=O)c3ccccc23)cc1)c1csc(-c2cc(F)cc(F)c2)n1` [Example 49, 2-(3,5-difluorophenyl)-N-[4-(4-oxo-3,4-dihydrophthalazin-1-yl)phenyl]-1,3-thiazole-4-carboxamide], the half-maximal inhibitory concentration (IC50) at ROCK2 was 0.1 to 100 nM. Take `O=C(Oc1ccc(-c2n[nH]c(=O)c3ccccc23)cc1)N1Cc2ccccc2C1` [Example 68, 4-(4-Oxo-3,4-dihydrophthalazin-1-yl)phenyl isoindoline-2-carboxylate]: the concentration for half-maximal inhibition (IC50) at ROCK2 was 0.1 to 100 nM.

One may read the IC50 as the midpoint of a concentration-inhibition curve.
